The values that follow come from US9765037B2, “Compositions and methods for treating toxoplasmosis, cryptosporidiosis, and other apicomplexan protozoan related diseases” (University of Washington Through its Center for …, priority 2010, dated 2017).

Values after ≈ are worked out from the molar mass of the structure shown. Like-named read-outs stand apart in the source and are kept apart here.

For orientation: EC50 means the concentration needed to bring the measured effect to its halfway point. A word on the IC50: it is the midpoint of a concentration-inhibition curve. The low end stands for greater potency in that assay, the high end for weaker potency in that assay. For orientation: solubility means the concentration that dissolves in the medium under given conditions. The term AUC denotes the area under the concentration-time curve, a measure of exposure. A higher AUC goes with more exposure. As usually defined, the Cmax is the highest concentration seen after dosing. What is called Tmax is the time at which the peak concentration occurs.

The target of one data set is PfCDPK1 (Plasmodium falciparum (isolate 3D7), UniProt P62344). Put plainly: biochemical.
Another data set concerns the target HckKD (Homo sapiens (Human), UniProt P08631). Put plainly: Tyrosine kinase IC50, HckKD. The class given is biochemical. Conditions: Table 9.
The next data set concerns human fibroblast. Put plainly: Human fibroblast replication / cytotoxicity (Alamar blue). Type of data set: cell-based. On the technique in general: The colour change of resazurin is a common sign of viable cells or microbes.
For data set [1], the system named is human lymphocyte (CRL8155). Put plainly: Growth inhibition of human cell line CRL8155. The note with it: 10 μM.
In data set [2] the test system is human promyelocytic leukemia (HL-60). Briefly: Growth inhibition of human cell line HL-60. Conditions: 10 μM.
Another data set concerns the target PfCDPK4 (Plasmodium falciparum (isolate 3D7), UniProt Q8IBS5). Briefly: biochemical.
For a further data set, the system named is glioma derived (SF539). Put plainly: Growth inhibition of human cell line SF539. Conditions: 10 μM.
Data set [3] has as its system colorectal carcinoma (HC 2998). Briefly: Growth inhibition of human cell line HC 2998. The note with it: 10 μM.
Data set [4] can be described thus: Solubility in buffers of various pH. Type of data set: physicochemical. Conditions: buffer.
Data set [5] is described as follows: Blood levels after oral gavage dosing of mice (LC-MS). Conditions: mouse, in vivo, po.
[6] abbreviates: pH 6.5, aqueous buffer, read-out: Experimental Solubility pH 6.5.

Sequence of HckKD (P08631 262-515): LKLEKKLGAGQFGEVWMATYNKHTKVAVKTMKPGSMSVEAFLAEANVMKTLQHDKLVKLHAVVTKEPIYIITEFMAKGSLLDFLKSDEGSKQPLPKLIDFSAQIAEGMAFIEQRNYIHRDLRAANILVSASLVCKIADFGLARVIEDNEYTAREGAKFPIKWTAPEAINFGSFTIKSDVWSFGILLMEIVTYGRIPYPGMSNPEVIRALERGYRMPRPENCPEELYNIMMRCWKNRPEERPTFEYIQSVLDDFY

On to `CCCOc1ccc2cc(-c3nn(CC4CCNCC4)c4ncnc(N)c34)ccc2c1` [Compound 33, 1-(piperidin-4-ylmethyl)-3-(6-propoxynaphthalen-2-yl)-1H-pyrazolo[3,4-d]pyrimidin-4-amine], for which the values for the EC50 on PfCDPK1 and on PfCDPK4 were 196 nM and 21.1 nM, respectively. Further, on HckKD, the IC50 was more than 10 µM. Further, in the data set with human fibroblast, the “Observed HFF Toxicity (T at concentration)” value (shortened to “Observed HFF Toxicity”) is “T at 100 μM”. Further, the “Cell Toxicity CRL8155, % at 10 μM” value in data set [1] is reported as less than 30% at 10 μM. In addition, the “Cell Toxicity HL60, % at 10 μM” value in [2] is recorded as less than 30% at 10 μM. Further, in the data set with glioma derived (SF539), the “Cell Toxicity SF539, % at 10 μM” value was less than 30% at 10 μM. In data set [3], the “Cell Toxicity HCC2998, % at 10 μM” value turned out to be 30% at 10 μM.
For `C=CCOc1ccc2cc(-c3nn(C(C)C)c4ncnc(N)c34)ccc2c1` [Compound 41, 3-(6-(allyloxy)naphthalen-2-yl)-1-isopropyl-1H-pyrazolo[3,4-d]pyrimidin-4-amine], the midpoint of the response on PfCDPK1, the EC50, lay at 36.3 nM. In addition, in the data set with human fibroblast, the “Observed HFF Toxicity” value is listed as “T at 100 μM”. For the same molecule, the “Cell Toxicity CRL8155, % at 10 μM” value in data set [1] is reported as less than 30% at 10 μM. Further, in data set [4] (setting [6]), the solubility stood at 4.4 µM (≈ 1.58 µg/mL). Further, in [2], the “Cell Toxicity HL60, % at 10 μM” value is given as less than 30% at 10 μM. It took 19.2 nM to reach a half-maximal effect on PfCDPK4 (EC50). Further, in data set [5], the AUC was 52.9 µM·h, the highest concentration (Cmax) came out at 13.6 µM and the Tmax is 1.67 h.
On to `CCOc1ccc2cc(-c3nc(C(C)(C)C)n4ccnc(N)c34)ccc2c1` [Compound 69, 3-tert-butyl-1-(6-ethoxynaphthalen-2-yl)imidazo[1,5-a]pyrazin-8-amine], for which the EC50 at PfCDPK1 came out at 198 nM; on PfCDPK4 it was 132 nM. The “Observed HFF Toxicity” value with human fibroblast is on record as “T at 25 μM”. Further, the “Cell Toxicity CRL8155, % at 10 μM” value in [1] is reported as less than 30% at 10 μM. Also, in [4] (setting [6]), the solubility is 3 µM (≈ 1.08 µg/mL). The “Cell Toxicity HL60, % at 10 μM” value in data set [2] was less than 30% at 10 μM.
In turn, `C=CCOc1ccc2cc(-c3nn(CC4CCNCC4)c4ncnc(N)c34)ccc2c1` [Compound 36, 3-(6-(allyloxy)naphthalen-2-yl)-1-(piperidin-4-ylmethyl)-1H-pyrazolo[3,4-d]pyrimidin-4-amine] gave an EC50 on PfCDPK1 of 146 nM. Moreover, the half-maximal inhibitory concentration (IC50) against HckKD was more than 10 µM. Besides, in the data set on human fibroblast, the “Observed HFF Toxicity” value is “T at 100 μM”. For the same molecule, in data set [1], the “Cell Toxicity CRL8155, % at 10 μM” value was less than 30% at 10 μM. Also, the “Cell Toxicity HL60, % at 10 μM” value in [2] was less than 30% at 10 μM. Also, the EC50 at PfCDPK4 stood at 15.7 nM. Moreover, in data set [5], the exposure (AUC) is 1.83 µM·h, the Cmax worked out at 0.59 µM and the Tmax was 3.67 h. Besides, the “Cell Toxicity SF539, % at 10 μM” value with glioma derived (SF539) was less than 30% at 10 μM. Moreover, in data set [3], the “Cell Toxicity HCC2998, % at 10 μM” value was less than 30% at 10 μM.
On to `CCCCOc1ccc2cc(-c3nn(C(C)C)c4ncnc(N)c34)ccc2c1` [Compound 42, 3-(6-butoxynaphthalen-2-yl)-1-isopropyl-1H-pyrazolo[3,4-d]pyrimidin-4-amine], for which the EC50 on PfCDPK1 was 156 nM. Also, the “Observed HFF Toxicity” value with human fibroblast is listed as “T at 100 μM”. Besides, the solubility in data set [4] (setting [6]) is 4.4 µM (≈ 1.65 µg/mL). Further, the EC50 on PfCDPK4 turned out to be 308 nM. In [5], the AUC was 40.6 µM·h, the peak level (Cmax) was 10.7 µM and the Tmax was 2.67 h.
As to `CC(C)COc1ccc2cc(-c3nn(CC4CCNCC4)c4ncnc(N)c34)ccc2c1` [Compound 44, 3-(6-isobutoxynaphthalen-2-yl)-1-(piperidin-4-ylmethyl)-1H-pyrazolo[3,4-d]pyrimidin-4-amine], the 50% effective concentration (EC50) at PfCDPK1 was 182 nM; at PfCDPK4 it was 58.3 nM. Moreover, the “Observed HFF Toxicity” value in the data set on human fibroblast is “T at 100 μM”. For the same molecule, the solubility came to 47 µM (≈ 20.2 µg/mL) in [4] (aqueous buffer, pH 2.0, read-out: Experimental Solubility pH 2.0); 38 µM (≈ 16.4 µg/mL) in data set [4] (setting [6]); 33 µM (≈ 14.2 µg/mL) in [4] (pH 7.4, aqueous buffer, read-out: Experimental Solubility pH 7.4). In addition, the AUC in [5] was 2.47 µM·h. Further, the Cmax in data set [5] was 0.95 µM. Moreover, in data set [5], the Tmax was 3 h.
